Laboratory results as given in patent publication US20190364896A1, “SYNERGISTIC WEED CONTROL FROM APPLICATIONS OF PYRIDINE CARBOXYLIC ACID HERBICIDES AND ALS INHIBITORS” (Dow AgroSciences LLC, priority 2014, published 2019).

Key:
Test in all cases: Postemergence herbicidal activity, greenhouse trial (visual injury 0-100%)
Assay type in all cases: in vivo
[1] = tested on: wild buckwheat (Polygonum convolvulus, POLCO)
Experimental: (§1) Seeds of the desired test plant species were planted in Sun Gro MetroMix® 306 planting mixture, which typically has a pH of 6.0 to 6.8 and an organic matter content of about 30 percent, in plastic pots with a surface area of 103.2 square centimeters (cm^2). […] The plants were grown for 7-36 days (d) in a greenhouse with an approximate 14-hour (h) photoperiod which was maintained at about 23° C. during the day and 22° C. during the night. Nutrients and water were added on a regular basis and supplemental lighting was provided with overhead metal halide 1000-Watt lamps as necessary. The plants were employed for testing when they reached the second or third true leaf stage.
(§2) Weighed amounts of technical or formulated material (emulsifiable concentrate (EC) or soluble concentrate (SL)) were dissolved in a volume of 97:3 volume per volume (v/v) acetone/dimethyl sulfoxide (DMSO) to stock solutions. […] The concentrated stock solutions were diluted with an aqueous mixture of 1.5% v/v of Agri-dex crop oil concentrate to provide the appropriate application rates. Compound requirements are based upon a 12 milliliter (mL) application volume at a rate of 187 liters per hectare (L/ha). Spray solutions of the experimental compound mixtures were prepared by adding the stock solutions to the appropriate amount of dilution solution to form a 12 mL spray solution in two-way combinations. Formulated compounds were applied to the plant material with an overhead Mandel track sprayer equipped with 8002E nozzles calibrated to deliver 187 L/ha over an application area of 0.503 square meters (m^2) at a spray height of 18 inches (43 centimeters (cm)) above average plant canopy. Control plants were sprayed in the same manner with the solvent blank. Application rates for component (a) are in g ae/ha, and application rates for component (b) are in g ai/ha.
(§3) The treated plants and control plants were placed in a greenhouse as described above and watered by sub-irrigation to prevent wash-off of the test compounds. After 20-22 d, the condition of the test plants as compared with that of the control plants was determined visually and scored on a scale of 0 to 100 percent where 0 corresponds to no injury and 100 corresponds to complete kill. Colby's equation was used to determine the herbicidal effects expected from the mixtures. […]
(§4) Weighed amounts of technical material were dissolved in a volume of 97:3 volume per volume (v/v) acetone/dimethyl sulfoxide (DMSO) to stock solutions. […] The concentrated stock solutions were diluted with an aqueous mixture of 1.5% v/v of Agri-dex crop oil concentrate to provide the appropriate application rates. Compound requirements are based upon a 12 milliliter (mL) application volume at a rate of 187 liters per hectare (L/ha).

[2] = tested on: chickweed (Stellaria media, STEME); details: for pest or weed control: 4.375 g ai/ha
Experimental: as §1, §2
(§5) The treated plants and control plants were placed in a greenhouse as described above and watered by sub-irrigation to prevent wash-off of the test compounds. After 20-22 d, the condition of the test plants as compared with that of the control plants was determined visually and scored on a scale of 0 to 100 percent where 0 corresponds to no injury and 100 corresponds to complete kill. The condition of the test plants was compared with that of the control plants as determined visually and scored on a scale of 0 to 100 percent, where 0 corresponds to no injury and 100 corresponds to complete kill. Colby's equation was used to determine the herbicidal effects expected from the mixtures.
(§6) Compound 1 was formulated as an EC and was combined with florasulam, cloransulam, diclosulam, flumetsulam, penoxsulam, or pyroxsulam. Compound 2 was formulated as an EC and was combined with florasulam or pyroxsulam. The mixtures were applied to winter wheat (TRZAW), common rice (ORYSA), maize (ZEAMX), and the phytotoxicity of the herbicidal compositions was measured. In addition, the efficacy of the herbicidal compositions on blackgrass (Alopecurus myosuroides, ALOMY), pigweed (Amaranthus retrollexus, AMARE), wild oat (Avena fatua, AVEFA), common lambsquarters (Chenopodium album L., CHEAL), thistle (Cirsium arvense CIRAR), nutsedge (Cyperus esculentus, CYPES), barnyardgrass (Echinochloa crus-galli, ECHCG), poinsettia (Euphorbia heterophylla, EPHHL), ivyleaf morning-glory (Ipomoea hederacea, IPOHE), kochia (Kochia scoparia, KCHSC), wild buckwheat (Polygonum convolvulus, POLCO), grain sorghum (Sorghum vulgare, SORVU), chickweed (Stellaria media, STEME), wild pansy (Viola tricolor, VIOTR), was evaluated.
as §4, with “(L/ha). […]” for “(L/ha).”

[3] = tested on: nutsedge (Cyperus esculentus, CYPES); details: Cyperus, post-emergence, read-out: % visual injury Obs; for pest or weed control: 4.375 g ai/ha
Experimental: as §1
as §2, with “technical” for “technical or formulated”, “material” for “material (emulsifiable concentrate (EC) or soluble concentrate (SL))”
as §3, §2

[4] = tested on: thistle (Cirsium arvense, CIRAR); details: for pest or weed control: 4.375 g ai/ha
Experimental: as §1, §2, §3, §4

[5] = tested on: kochia (Kochia scoparia, KCHSC); details: for pest or weed control: 4.375 g ai/ha
Experimental: as §1, §2, §3, §4

[6] = tested on: ivyleaf morning-glory (Ipomoea hederacea, IPOHE)
Experimental: as §1, §2, §5, §6
as §4, with “(L/ha). […]” for “(L/ha).”

[7] = tested on: barnyardgrass (Echinochloa crus-galli, ECHCG); details: Echinochloa crus-galli, post-emergence, read-out: % visual injury Obs
Experimental: as §1, §2, §5, §6
as §4, with “(L/ha). […]” for “(L/ha).”

[8] = tested on: common lambsquarters (Chenopodium album L., CHEAL); details: Chenopodium album, post-emergence, 4.375 g ai/ha; read-out: % visual injury Obs
Experimental: as §1, §2, §5, §6
as §4, with “(L/ha). […]” for “(L/ha).”

[9] = tested on: poinsettia (Euphorbia heterophylla, EPHHL); details: Euphorbia heterophylla, post-emergence; 4.375 g ai/ha; read-out: % visual injury Obs
Experimental: as §1
as §2, with “technical” for “technical or formulated”, “material” for “material (emulsifiable concentrate (EC) or soluble concentrate (SL))”
as §3, §2

[10] = tested on: pigweed (Amaranthus retroflexus, AMARE); details: for pest or weed control: 4.375 g ai/ha
Experimental: as §1, §2, §3, §4

[11] = tested on: wild pansy (Viola tricolor, VIOTR); details: Viola tricolor, post-emergence, VIOTR, read-out: % visual injury Obs
Experimental: as §1, §2, §5
as §6, with “Compound 1 was formulated as an EC and was combined with florasulam, cloransulam, diclosulam, flumetsulam, penoxsulam, or pyroxsulam.” left out
as §4

[12] = Stellaria media, post-emergence, read-out: % visual injury Obs
[13] = Cirsium arvense, post-emergence, read-out: % visual injury Obs
[14] = Bassia scoparia, post-emergence, read-out: % visual injury Obs
[15] = Amaranthus retroflexus, post-emergence, read-out: % visual injury Obs

Molecule: COC(=O)c1ccc(I)cc1S(=O)(=O)[N-]C(=O)Nc1nc(C)nc(OC)n1.[Na+]
- pest or weed control at 2.5 g/ha ([1]; Fallopia convolvulus, post-emergence, POLCO, iodosulfuron 2.5 g ai/ha, read-out: % visual injury Obs): 80%

Molecule: COC(=O)c1csc(C)c1S(=O)(=O)NC(=O)n1nc(OC)n(C)c1=O
- pest or weed control at 5 g/ha ([2]; Stellaria media, post-emergence, 5 g ai/ha, read-out: % visual injury Obs): 95%
- pest or weed control at 5 g/ha ([3]; 5 g ai/ha): 70%
- pest or weed control at 5 g/ha ([4]; Cirsium arvense, post-emergence, 5 g ai/ha, read-out: % visual injury Obs): 50%
- pest or weed control at 5 g/ha ([5]; Bassia scoparia, post-emergence, 5 g ai/ha, read-out: % visual injury Obs): 10%

Molecule: COC(=O)c1sccc1S(=O)(=O)NC(=O)Nc1nc(C)nc(OC)n1
- pest or weed control at 15 g/ha ([6]; Ipomoea hederacea, post-emergence, IPOHE, thifensulfuron 15 g ai/ha, read-out: % visual injury Obs): 85%
- pest or weed control at 15 g/ha ([7]; ECHCG, thifensulfuron 15 g ai/ha): 10%
- pest or weed control at 15 g/ha ([3]; CYPES, thifensulfuron 15 g ai/ha): 0%
- pest or weed control at 15 g/ha ([4]; Cirsium arvense, post-emergence, CIRAR, thifensulfuron 15 g ai/ha, read-out: % visual injury Obs): 10%

Molecule: COC(=O)c1ccccc1S(=O)(=O)NC(=O)N(C)c1nc(C)nc(OC)n1
- pest or weed control at […] ([6]; Ipomoea hederacea, post-emergence, IPOHE, tribenuron 7.5 g ai/ha, read-out: % visual injury Obs): 65%
- pest or weed control at […] ([3]; CYPES, tribenuron 7.5 g ai/ha): 0%
- pest or weed control at […] ([1]; Fallopia convolvulus, post-emergence, POLCO, tribenuron 7.5 g ai/ha, read-out: % visual injury Obs): 90%
- pest or weed control at […] ([5]; Bassia scoparia, post-emergence, KCHSC, tribenuron 7.5 g ai/ha, read-out: % visual injury Obs): 70%

Molecule: CCOc1nc(F)cc2nc(S(=O)(=O)Nc3c(Cl)cccc3C(=O)OC)nn12 [Cloransulam, cloransulam]
- pest or weed control [8]: 0%
- pest or weed control [2, 12]: 0%
- pest or weed control [9]: 30%
- pest or weed control [3]: 50%
- pest or weed control ([1]; Fallopia convolvulus, post-emergence, 4.375 g ai/ha, read-out: % visual injury Obs): 85%
- pest or weed control [4, 13]: 99%
- pest or weed control [5, 14]: 0%
- pest or weed control [10, 15]: 0%

Molecule: CCOc1nc(F)cc2nc(S(=O)(=O)Nc3c(Cl)cccc3Cl)nn12 [Diclosulam, diclosulam]
- pest or weed control [8]: 0%
- pest or weed control [2, 12]: 0%
- pest or weed control ([6]; Ipomoea hederacea, post-emergence, 4.375 g ai/ha, read-out: % visual injury Obs): 93%
- pest or weed control ([7]; 4.375 g ai/ha): 30%
- pest or weed control [9]: 60%
- pest or weed control [3]: 50%
- pest or weed control [4, 13]: 93%
- pest or weed control [5, 14]: 50%
- pest or weed control [10, 15]: 60%

Molecule: CCOc1ccccc1OS(=O)(=O)NC(=O)Nc1nc(OC)cc(OC)n1 [Ethoxysulfuron, ethoxysulfuron]
- pest or weed control at 10 g/ha ([2]; Stellaria media, post-emergence, STEME, ethoxysulfuron 10 g ai/ha, read-out: % visual injury Obs): 10%
- pest or weed control at 10 g/ha ([11]; ethoxysulfuron 10 g ai/ha): 40%
- pest or weed control at 10 g/ha ([5]; Bassia scoparia, post-emergence, KCHSC, ethoxysulfuron 10 g ai/ha, read-out: % visual injury Obs): 0%
- pest or weed control at 10 g/ha ([10]; Amaranthus retroflexus, post-emergence, AMARE, ethoxysulfuron 10 g ai/ha, read-out: % visual injury Obs): 20%

Molecule: CCS(=O)(=O)c1nc2ccccn2c1S(=O)(=O)NC(=O)Nc1nc(OC)cc(OC)n1 [Sulfosulfuron, sulfosulfuron]
- pest or weed control at 8.75 g/ha ([11]; sulfosulfuron 8.75 g ai/ha): 80%
- pest or weed control at 8.75 g/ha ([3]; CYPES, sulfosulfuron 8.75 g ai/ha): 80%
- pest or weed control at 8.75 g/ha ([1]; Fallopia convolvulus, post-emergence, POLCO, sulfosulfuron 8.75 g ai/ha, read-out: % visual injury Obs): 80%
- pest or weed control at 8.75 g/ha ([4]; Cirsium arvense, post-emergence, CIRAR, sulfosulfuron 8.75 g ai/ha, read-out: % visual injury Obs): 85%

Molecule: halosulfuron
- % visual injury Obs ([2]; STEME, halosulfuron 17.5 g ai/ha): 50%
- % visual injury Obs ([6]; IPOHE, halosulfuron 17.5 g ai/ha): 20%
- % visual injury Obs ([1]; POLCO, halosulfuron 8.75 g ai/ha): 30%
- % visual injury Obs ([4]; CIRAR, halosulfuron 8.75 g ai/ha): 10%
- % visual injury Obs ([5]; KCHSC, halosulfuron 17.5 g ai/ha): 0%
- % visual injury Obs ([10]; AMARE, halosulfuron 17.5 g ai/ha): 30%
